From patent US20080200405A1, “Drug Resistance Reversal In Neoplastic Disease” (priority 2007, published 2008) come the findings set out here.

Read-outs that look alike come from different tables or passages of the source. Marks after values point to notes of the source that are not given here. Where only a bound is given, the exact number is not on record here.

The subject of one series is Lipid peroxidation. Description: Lipid peroxidation inhibition (method of Ohkawa). To be noted: for Lipid Peroxidation Inhibition, % Inhibition: 10 uM. The format is biochemical.
Another series relates to Angiogenesis in CAM. The experiment in a line: Neovascularization on the CAM (Inhibition of Angiogenesis in CAM). Format: in vivo, chicken. To be noted: for inhibition in vivo at 0.03 mg: Gallus gallus. The procedure:
In vivo neovascularization was examined by the method previously described by Auerbach et al. (J. Dev. Biol. 41:391-394 (1974)). Ten-day old chicken embryos were purchased from Spafas, Inc. (Preston, Conn.) and were incubated at 37° C. with 55% relative humidity. In the dark, with the aid of a candling lamp, a small hole was punctured in the shell concealing the air sac with a hypodermic needle. A second hole was punctured in the shell on the broadside of the egg directly over an […] portion of the embryonic membrane, as observed during candling. An artificial air sac was created beneath the second hole by applying gentle vacuum to the first hole using a small rubber squeeze bulb. The vacuum caused the chorioallantoic membrane (CAM) to separate from the shell. A window, approximately 1.0 cm^2, was cut in the shell over the dropped CAM with the use of a small crafts grinding wheel (Dremel, Division of Emerson Electric Company Racine, Wis.). The window allowed direct access to the underlying CAM. A pro-angiogenic agent was added to induce new blood vessel branches on the CAM of 10-day old embryos. […] Louis, Mo.) in a solution (95% ethanol and water). The disks were subsequently air dried under sterile conditions. The disks were then suspended in PBS (Phosphate Buffered Saline) and placed on growing CAMs. […] For inducing angiogenesis, sterile filter disks were saturated with bFGF (1 μg/ml) (Life Technologies, Gaithersburg, Md.) or other pro-angiogenesis factors and control disks were saturated with PBS without Calcium and Magnesium. Control disks were saturated with PBS without Calcium and Magnesium. Using sterile forceps one filter/CAM was placed from the window. The window was sealed with Highland brand transparent tape. After 24-48 hr, 10-25 ul of test agent was injected intravenously or added topically into the CAM membrane. Eight-Ten eggs/treatment group were used. CAM tissue directly beneath filter disk was harvested from embryos treated 48 hours prior with compound or control. Tissues were washed three times with PBS. Sections were placed in a 35-mm petri dish (Nalge Nunc, Rochester, N.Y.) and examined under a SV6 stereomicroscope (Karl Zeiss, Thornwood, N.Y.) at 50× magnification. […] Digital images of CAM sections from Petri dish were collected using a 3-CCD color video camera system (Toshiba America, New York, N.Y.). These images were analyzed using Image-Pro Plus software (Media Cybernetics, Silver Spring, Md.). The number of branch points in blood vessels within the circular region superimposed to the area of a filter disk was counted for each section. […] Tissues were washed three times with PBS. Sections were placed in a 35-mm Petri dish (Nalge Nunc; Rochester, N.Y.) and were examined under a SV6 stereomicroscope (Karl Zeiss; Thornwood, N.Y.) at 50× magnification. Digital images of CAM sections adjacent to filters were collected using a 3-CCD color video camera system (Toshiba America; New York, N.Y.) and analyzed with the Image-Pro Plus software (Media Cybernetics; Silver Spring, Md.). The number of vessel branch points contained in a circular region equal to the area of a filter disk was counted for each section. Percent inhibition data are expressed as the quotient of the experimental value minus the negative control value divided by the difference between the positive control value and the negative control value. One image was counted in each CAM preparation, and findings from eight CAM preparations were analyzed for each treatment condition. In addition, each experiment was performed three times. The resulting angiogenesis index is the mean ±SEM (Standard Error of Measurement) of new branch points in each set of treatment. Statistical analysis of blood vessel branching patterns are performed by 1-way analysis of variance (ANOVA) comparing experimental with corresponding control groups.

Series [1] relates to Doxorubicin resistant SaOS2 cells. The experiment in a line: Cancer cell viability (MTT) in the presence or absence of doxorubicin. The format is cell-based, human. The conditions noted are these: compound 50 ug/mL, 3 days.
A further series deals with TNFα. Description: Measurement of LPS Induced-TNFα in THP-1 Cells. The format is cell-based, human.
Series [2] deals with Human whole blood clot formation. The protocol: TEG: Human whole blood (±drugs) was added to the cylindrical cuvette (“cup”). […] The cup oscillates 4°45′ ( 1/12 radian) in either direction every 4.5 seconds, with a 1-second mid-cycle stationary period, resulting in a frequency of 0.1 Hz and a maximal shear rate of 0.1 per second. The pin was suspended by a torsion wire that acts as a torque transducer. […] The torque experienced by the pin (relative to the oscillation of the cup) was plotted as a function of time (Forsythe, S. A. M. S. K. M. S. (2000): “Comparative In Vitro Efficacy of Different Platelet Glycoprotein IIb/IIIa Antagonists on Platelet-Mediated Clot Strength Induced by Tissue Factor With Use of Thromboelastography.” Arteriosclerosis, Thrombosis, and Vascular Biology 20: 1162).
(Data represent mean ±SD, n=6 (blood form normal healthy volunteers), *P<0.01 as compared to control)

For series [3], the system named is angiogenesis in the CAM model. The experiment in a line: Effect of TEMPOL-H on the anti-angiogenesis efficacy of ranibizumab in the CAM model. The conditions noted are these: for Mean % Inhibition +/− SEM, With TEMPOL-H (30 ug): P < 0.01; for Mean % Inhibition +/− SEM, Without TEMPOL-H: n = 6-8. The format is in vivo, chicken. The procedure:
FIGS. 3A and 3B depict the effect of TEMPOL-H (OT-674) on the anti-angiogenesis efficacy of ranibizumab (LUCENTIS™) in the CAM model. FIG. 3A depicts 30 ug of TEMPOL-H and 1 ng of ranibizumab. FIG. […]
Ranibizumab (Genentech, South San Francisco, Calif.) is a monoclonal antibody fragment that binds to VEGF-A. It is anti-angiogenic and is approved to treat the wet type of age-related macular degeneration. The effect of the co-administration of TEMPOL-H (also referred to as OT-674) with Ranibizumab is depicted in Table 9. This effect is also depicted in FIGS. 3A and 3B.

The mark [4] stands for this setting: Homo sapiens, THP-1, compound 10 uM, 5 ng/mL LPS, read-out: Mean Percent Inhibition of TNF-alpha using 5 ng/mL LPS.
Setting [5] is: Homo sapiens, THP-1, read-out: TNFalpha IC50.
Where [6] appears, read: TEG, human whole blood, Ranibizumab 1 ng/cup, Comp. 4 0 uM, *P<0.01 vs control.

In general, IC50 refers to the concentration that inhibits the measured activity by half. As a reminder, the inhibition in vivo is how much of the control response was suppressed. A lower inhibition in vivo goes with little suppression. For orientation: melting point means the temperature, or range, at which the solid turns liquid.

Turning to `COc1cc2c(cc1O)CC[C@@H]1[C@@H]2CC[C@]2(C)[C@@H](O)CC[C@@H]12` [2-methoxyestradiol, reference compound], the “Lipid Peroxidation Inhibition, % Inhibition” value in the series on Lipid peroxidation is 92.3%. Besides, the “Inhibition of Angiogenesis in CAM, % Inhibition” value with Angiogenesis in CAM (30 ug) is given as 92.3%.

With `CC1(C)CC(C#N)CC(C)(C)N1O.Cl` [Compound 12, 4-cyano-1-hydroxyl-2,2,6,6-tetramethylpiperidine hydrogen chloride], the melting point was 186 °C (dec.). Besides, in series [1] (Dox. 10^−6 M (+)), the “Mean OD (×10^−3), MTT viability” value was 287.25 ×10^−3. The “Mean OD (×10^−3), MTT viability” value in series [1] (absence of Dox. (−)) is 539.25 ×10^−3. Further, the inhibition at 10 µM in the series on TNFα (setting [4]) was 35%. In addition, the IC50 with TNFα (setting [5]) was determined as 21.5 µM. The molecule also gave an inhibition in vivo at 0.03 mg in the series with Angiogenesis in CAM (30 ug) of 92.1%.

With `CC1(C)CC(Oc2nsnc2Cl)CC(C)(C)N1O` [Compound 13, 4-(4-chloro-1,2,5-thiadiazol-3-yloxyl)-1-hydroxyl-2,2,6,6-tetramethylpiperidine hydrogen chloride], in the series on TNFα (setting [4]), the inhibition at 10 µM was found to be 36%. In the series on TNFα (setting [5]), the IC50 is 16.4 µM. Moreover, the inhibition in vivo at 0.03 mg in the series with Angiogenesis in CAM (30 ug) turned out to be 93.4%.

With `CC1(C)CC(Oc2nsnc2OC2CC(C)(C)N(O)C(C)(C)C2)CC(C)(C)N1O` [Compound 14, 1-hydroxyl-4-(4-(2,2,6,6-tetramethylpiperidin-1-hydroxyl-4-yloxy)-1,2,5-thiadiazol-3-yloxy)-2,2,6,6-tetramethylpiperidine bis-hydrogen chloride], in the series with TNFα (Homo sapiens, THP-1, read-out: Mean Percent Inhibition of TNF-alpha using 5 ng/mL LPS), the inhibition at 10 µM came out at 63 ± 1%. For the same molecule, the 50% inhibitory concentration (IC50) with TNFα (Homo sapiens, THP-1, read-out: TNFalpha IC50 (uM)) amounted to 11.4 µM. The molecule also displayed an inhibition in vivo at 0.03 mg in the series with Angiogenesis in CAM (30 ug) of 95.2%.

With `CC1(C)c2ccc(C(=O)O)cc2C(C)(C)N1O.Cl` [Compound 15, 1,1,3,3-tetramethylisoindolin-2-hydroxyl-5-carboxylic acid hydrogen chloride], the melting point is 225.5 °C (dec.). Besides, the inhibition at 10 µM in the series on TNFα (setting [4]) is 67 ± 7%. Also, the “% Lipid Peroxidation inhibition (at 1 uM)” value with Lipid peroxidation (1 uM) was 88.0%. Besides, in the series with Lipid peroxidation, the “Lipid Peroxidation Inhibition, % Inhibition” value is given as 94.6%. For the same molecule, the inhibition in vivo at 0.03 mg in the series on Angiogenesis in CAM (30 ug) amounted to 94.6%.

As to `CC1(C)COCC(C)(C)N1O.Cl` [Compound 20, 3,3,5,5-1-hydroxy-tetramethylmorpholine hydrogen chloride], the melting point is 184.6 °C (dec.). Moreover, the “Mean OD (×10^−3), MTT viability” value in series [1] (Dox. 10^−6 M (+)) was 107.5 ×10^−3. Besides, in series [1] (absence of Dox. (−)), the “Mean OD (×10^−3), MTT viability” value was 515.50 ×10^−3. In the series on TNFα (setting [5]), the IC50 was at least 100 µM. Further, the “Lipid Peroxidation Inhibition, % Inhibition” value in the series on Lipid peroxidation amounted to 90.2%. The molecule also displayed an inhibition in vivo at 0.03 mg with Angiogenesis in CAM (30 ug) of 90.2%.

Consider `CC1(C)CC(Cl)CC(C)(C)N1O.Cl` [Compound 21, 4-chloro-1-hydroxy-2,2,6,6-tetramethylpiperidine hydrogen chloride], for which the melting point is 201.8 °C (dec.). For the same molecule, the “Mean OD (×10^−3), MTT viability” value in series [1] (Dox. 10^−6 M (+)) is on record as 99.25 ×10^−3. Moreover, in series [1] (absence of Dox. (−)), the “Mean OD (×10^−3), MTT viability” value is reported as 492.75 ×10^−3. The IC50 with TNFα (setting [5]) was found to be 21.7 µM. This molecule returned an inhibition in vivo at 0.03 mg in the series with Angiogenesis in CAM (30 ug) of 94.1%.

As for `CC1(C)C=C(C(N)=O)C(C)(C)N1O` [Compound 23, 2,5-dihydro-2,2,5,5-tetramethyl-1H-pyrrole-3-carboxamide-1-hydroxy], the “Mean OD (×10^−3), MTT viability” value in series [1] (Dox. 10^−6 M (+)) is 416.25 ×10^−3; in series [1] (absence of Dox. (−)) it was 1432.50 ×10^−3. In addition, the IC50 in the series with TNFα (read-out: TNFalpha IC50) came to 87.4 µM. Besides, the “% inhibition of angiogenesis in CAM at 30 ug” value in the series on Angiogenesis in CAM (30 ug) is 48.8.

Regarding `CC1(C)CC(NC(=O)C2CC2)C(C)(C)N1O.Cl` (centres unmarked) [Compound 38, N-(1-hydroxy-2,2,5,5-tetramethylpyrrolidin-3-yl)cyclopropanecarboxamide hydrogen chloride], the “Mean OD (×10^−3), MTT viability” value in series [1] (Dox. 10^−6 M (+)) is 378.50 ×10^−3; in series [1] (absence of Dox. (−)) it was 1202.75 ×10^−3. Further, the half-inhibitory concentration (IC50) with TNFα (setting [5]) was at least 100 µM. Besides, the “% inhibition of angiogenesis in CAM at 30 ug” value with Angiogenesis in CAM (30 ug) was found to be 62.8.

Consider `O=C1O[C@H]([C@@H](O)CO)C(O)=C1O` [Vitamin C, reference compound], for which the “Inhibition of Angiogenesis in CAM, % Inhibition” value in the series with Angiogenesis in CAM (300 ug) was determined as 15 ± 7%.

Take “Ranibizumab: a monoclonal antibody fragment that binds to VEGF-A”: the “MA in comparison to native blood” value in series [2] is reported as “approximately six times larger MA”. Also, the “initiation of clot formation in comparison to native blood” value in series [2] was “approximately two to three fold faster”. The “Clot Strength - MA” value in series [2] (setting [6]) is given as 28.5 ± 3.4* mm. Also, the “Time to Clot Initiation R” value in series [2] (setting [6]) is 6.9 ± 1.4* min. Also, the “Mean % Inhibition +/− SEM, With TEMPOL-H (30 ug)” value in series [3] (VEGF + Ranibizumab (1 ug) with TEMPOL-H (30 ug)) is 54 +/− 9* %; in series [3] (VEGF + Ranibizumab (10 ug) with TEMPOL-H (30 ug)), 69 +/− 6* %; in series [3] (VEGF + Ranibizumab (100 ug) with TEMPOL-H (30 ug)), 83 +/− 4* %. The entries for the “Mean % Inhibition +/− SEM, Without TEMPOL-H” value in series [3] (VEGF + Ranibizumab (1 ug)), in series [3] (VEGF + Ranibizumab (10 ug)) and in series [3] (VEGF + Ranibizumab (100 ug)) were 18 +/− 5%, 33 +/− 6% and 53 +/− 8%, respectively.

With Vitamin E [reference compound], the “Inhibition of Angiogenesis in CAM, % Inhibition” value with Angiogenesis in CAM (300 ug) turned out to be 22 ± 6%.
